This note sets out measurements from ChEMBL document CHEMBL1126617, “A topochemical approach to explain morphiceptin bioactivity” (J Med Chem, 1993).

A value given as a limit tells only on which side of the number the result lay.

As usually defined, the IC50 is the point on the concentration scale where inhibition reaches its midpoint. A low value points to greater potency.

Experiment [1] addresses Delta-type opioid receptor (Mus musculus, UniProt P32300). Description: In vitro inhibitory activity against delta opioid receptor using mouse vas deferens (MVD) assay. Format: tissue-based.
The next experiment deals with Mu-type opioid receptor (Cavia porcellus, UniProt P97266). The experiment is described as follows: In vitro inhibitory activity against mu opioid receptor using guinea pig ileum (GPI) assay. Format: tissue-based.
Chain of Mu-type opioid receptor (P97266 whole entry): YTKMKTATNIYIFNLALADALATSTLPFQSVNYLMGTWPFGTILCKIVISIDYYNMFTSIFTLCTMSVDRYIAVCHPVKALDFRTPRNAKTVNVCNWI

Chain of Delta-type opioid receptor (P32300 whole entry): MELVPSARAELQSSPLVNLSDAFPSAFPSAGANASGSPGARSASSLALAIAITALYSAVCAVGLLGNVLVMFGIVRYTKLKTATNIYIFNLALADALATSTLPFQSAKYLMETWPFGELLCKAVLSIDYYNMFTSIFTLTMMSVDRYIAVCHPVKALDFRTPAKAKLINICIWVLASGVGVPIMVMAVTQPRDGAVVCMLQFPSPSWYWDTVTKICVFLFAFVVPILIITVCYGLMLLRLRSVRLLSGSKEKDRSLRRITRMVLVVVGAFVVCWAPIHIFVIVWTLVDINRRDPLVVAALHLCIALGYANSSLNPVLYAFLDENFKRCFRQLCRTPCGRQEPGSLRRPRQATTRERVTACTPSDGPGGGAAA

Consider `CN(C(=O)[C@@H]1CCCN1C(=O)[C@@H](N)Cc1ccc(O)cc1)[C@H](Cc1ccccc1)C(=O)N1CCC[C@@H]1C(N)=O`, for which the IC50 stood at 565 µM in experiment [1] and 2.66 µM at Mu-type opioid receptor.
Taken in the same sequence, the figures for `NC(=O)[C@@H]1CCCN1C(=O)[C@@H](Cc1ccccc1)NC(=O)[C@@H]1CCCN1C(=O)[C@@H](N)Cc1ccc(O)cc1` were 0.594 µM and 0.109 µM.
Turning to `NC(=O)[C@@H]1CCCN1C(=O)[C@H](Cc1ccccc1)NC(=O)[C@@H]1CCCN1C(=O)[C@@H](N)Cc1ccc(O)cc1` [MORPHICEPTIN], the IC50 is 3.69 µM in experiment [1] and 0.552 µM at Mu-type opioid receptor.
`C[C@H](NC(=O)[C@@H](N)Cc1ccc(O)cc1)C(=O)N[C@@H](Cc1ccccc1)C(=O)N1CCC[C@@H]1C(N)=O` came in with an IC50 in experiment [1] of over 100 µM.
For the molecule `CN(C(=O)[C@@H]1CCCN1C(=O)[C@@H](N)Cc1ccc(O)cc1)[C@@H](Cc1ccccc1)C(=O)N1CCC[C@@H]1C(N)=O`, the values for the IC50 (in experiment [1]; at Mu-type opioid receptor) were 1.25 µM and 0.0207 µM, respectively.
On to `CN(C(=O)[C@@H]1CCCN1C(=O)[C@@H](N)Cc1ccc(O)cc1)[C@@H](Cc1ccccc1)C(=O)N1CCC[C@H]1C(N)=O`, for which the IC50 in experiment [1] turned out to be 1.79 µM; against Mu-type opioid receptor it was 0.17 µM.
In the case of `NC(=O)[C@H]1CCCN1C(=O)[C@@H](Cc1ccccc1)NC(=O)[C@@H]1CCCN1C(=O)[C@@H](N)Cc1ccc(O)cc1`, the values for the IC50 (in experiment [1]; at Mu-type opioid receptor) were 4.81 µM and 0.557 µM, respectively.
`NC(=O)[C@H]1CCCN1C(=O)[C@H](Cc1ccccc1)NC(=O)[C@@H]1CCCN1C(=O)[C@@H](N)Cc1ccc(O)cc1`: the IC50 in experiment [1] amounted to 1.51 µM; on Mu-type opioid receptor, 0.0287 µM.
With `CN(C(=O)[C@@H]1CCCN1C(=O)[C@@H](N)Cc1ccc(O)cc1)[C@H](Cc1ccccc1)C(=O)N1CCC[C@H]1C(N)=O`, the half-maximal inhibitory concentration (IC50) in experiment [1] was over 1000 µM; against Mu-type opioid receptor, over 100 µM.
With `C[C@@H](C(=O)N[C@@H](Cc1ccccc1)C(=O)N1CCC[C@@H]1C(N)=O)N(C)C(=O)[C@@H](N)Cc1ccc(O)cc1`, the IC50 in experiment [1] worked out at 0.202 µM; at Mu-type opioid receptor it was 0.0306 µM.
